From BindingDB's records for doi:10.1021/bi3009278 (University of Wisconsin, 2012)

Molecular target: Lysine-specific demethylase 5A (Homo sapiens, UniProt P29375)
Experiment: Fluorescence Polarization Binding Assay

Lysine-specific demethylase 5A, sequence (P29375 whole entry): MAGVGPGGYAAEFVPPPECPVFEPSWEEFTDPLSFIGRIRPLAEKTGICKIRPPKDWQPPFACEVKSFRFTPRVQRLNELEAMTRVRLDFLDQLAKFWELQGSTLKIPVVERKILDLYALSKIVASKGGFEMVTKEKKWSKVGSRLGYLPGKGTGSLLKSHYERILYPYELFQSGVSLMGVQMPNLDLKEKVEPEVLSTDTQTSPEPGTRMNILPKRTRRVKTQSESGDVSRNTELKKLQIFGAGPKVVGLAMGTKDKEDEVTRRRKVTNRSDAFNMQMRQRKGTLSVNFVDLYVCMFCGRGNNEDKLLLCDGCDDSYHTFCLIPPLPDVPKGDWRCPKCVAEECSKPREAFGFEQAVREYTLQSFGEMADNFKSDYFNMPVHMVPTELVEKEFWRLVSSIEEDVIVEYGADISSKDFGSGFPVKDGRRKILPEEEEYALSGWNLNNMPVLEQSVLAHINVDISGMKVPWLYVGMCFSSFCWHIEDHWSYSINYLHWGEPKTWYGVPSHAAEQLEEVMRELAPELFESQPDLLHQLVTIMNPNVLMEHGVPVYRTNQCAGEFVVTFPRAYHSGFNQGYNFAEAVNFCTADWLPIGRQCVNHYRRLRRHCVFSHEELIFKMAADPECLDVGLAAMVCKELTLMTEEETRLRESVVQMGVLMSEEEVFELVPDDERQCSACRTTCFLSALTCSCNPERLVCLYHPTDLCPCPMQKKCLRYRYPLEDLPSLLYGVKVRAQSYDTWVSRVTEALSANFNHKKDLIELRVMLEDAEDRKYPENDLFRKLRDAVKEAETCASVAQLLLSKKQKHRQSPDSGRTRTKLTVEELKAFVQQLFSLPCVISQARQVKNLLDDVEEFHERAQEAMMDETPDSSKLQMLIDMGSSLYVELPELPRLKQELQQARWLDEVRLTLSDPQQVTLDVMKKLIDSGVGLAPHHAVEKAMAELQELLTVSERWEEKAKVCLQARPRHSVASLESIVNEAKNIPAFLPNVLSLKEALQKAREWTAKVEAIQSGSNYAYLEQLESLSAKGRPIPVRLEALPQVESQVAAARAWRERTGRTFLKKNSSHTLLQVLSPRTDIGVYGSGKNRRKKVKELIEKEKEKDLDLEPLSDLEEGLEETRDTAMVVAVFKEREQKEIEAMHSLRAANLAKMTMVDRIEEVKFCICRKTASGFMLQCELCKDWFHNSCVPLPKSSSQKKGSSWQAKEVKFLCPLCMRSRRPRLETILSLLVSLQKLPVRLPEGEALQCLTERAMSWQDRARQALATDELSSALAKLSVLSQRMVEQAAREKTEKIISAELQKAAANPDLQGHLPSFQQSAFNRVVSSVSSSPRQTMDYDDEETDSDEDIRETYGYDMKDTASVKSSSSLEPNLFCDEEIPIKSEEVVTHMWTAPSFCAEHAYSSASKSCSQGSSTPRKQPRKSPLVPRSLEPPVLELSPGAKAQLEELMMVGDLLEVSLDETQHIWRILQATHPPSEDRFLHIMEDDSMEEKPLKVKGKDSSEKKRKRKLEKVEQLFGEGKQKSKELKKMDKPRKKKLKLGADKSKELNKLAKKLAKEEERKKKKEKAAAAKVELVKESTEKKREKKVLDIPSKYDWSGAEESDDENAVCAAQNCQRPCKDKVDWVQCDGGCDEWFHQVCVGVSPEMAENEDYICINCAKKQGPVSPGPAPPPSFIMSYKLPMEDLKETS

Row | Structure (SMILES) | IC50
1 | CCCCc1oc2ccccc2c1C(=O)c1cc(I)c(OCCN)c(I)c1 [Di-N-desethylaminodarone] | 26 µM
2 | CCCCc1oc2ccccc2c1C(=O)c1cc(I)c(OCC[N+](C)(C)C)c(I)c1 [WAG-003] | 30 µM
